Experimental findings from ChEMBL document CHEMBL4616689, “PROTAC Compounds Targeting Androgen Receptor for Cancer Therapeutics: Prostate Cancer and Kennedy's Disease” (ACS Med Chem Lett, 2020) are described below.

Assay type in all cases: cell-based
Assay [1] concerns the target T1, von Hippel-Lindau disease tumor suppressor/Androgen receptor (Homo sapiens, UniProt P10275+P40337). The experiment in a line: Protac activity at E3 ubiquitin-protein ligase/AR in human VCAP cells assessed as induction of AR degradation after 24 hrs by ELISA.
Target sequence in this assay (P10275 whole entry): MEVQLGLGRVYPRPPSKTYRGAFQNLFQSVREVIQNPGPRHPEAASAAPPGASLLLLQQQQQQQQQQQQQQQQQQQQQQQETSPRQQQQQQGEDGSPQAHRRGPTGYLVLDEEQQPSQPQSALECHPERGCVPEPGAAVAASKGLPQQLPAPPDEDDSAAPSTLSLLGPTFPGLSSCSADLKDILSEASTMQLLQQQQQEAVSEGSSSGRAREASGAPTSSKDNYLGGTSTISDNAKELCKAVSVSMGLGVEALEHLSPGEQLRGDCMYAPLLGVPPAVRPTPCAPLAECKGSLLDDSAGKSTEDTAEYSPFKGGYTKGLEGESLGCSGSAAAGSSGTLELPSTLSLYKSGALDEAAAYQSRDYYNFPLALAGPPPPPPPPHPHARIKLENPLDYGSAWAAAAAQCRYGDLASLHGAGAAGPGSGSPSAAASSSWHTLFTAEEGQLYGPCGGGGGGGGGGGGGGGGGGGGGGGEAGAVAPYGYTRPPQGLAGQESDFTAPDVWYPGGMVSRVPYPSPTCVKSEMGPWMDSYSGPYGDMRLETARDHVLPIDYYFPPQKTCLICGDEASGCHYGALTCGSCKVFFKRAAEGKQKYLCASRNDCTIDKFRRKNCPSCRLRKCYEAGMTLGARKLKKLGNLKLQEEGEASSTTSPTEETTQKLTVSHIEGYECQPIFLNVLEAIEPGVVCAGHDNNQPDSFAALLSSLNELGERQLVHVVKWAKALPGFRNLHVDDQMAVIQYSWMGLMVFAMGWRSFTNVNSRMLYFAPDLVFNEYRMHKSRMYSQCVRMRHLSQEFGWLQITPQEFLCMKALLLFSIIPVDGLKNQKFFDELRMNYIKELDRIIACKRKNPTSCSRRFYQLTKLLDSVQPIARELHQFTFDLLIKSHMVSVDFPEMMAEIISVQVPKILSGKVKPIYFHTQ
Target sequence in this assay (P40337 whole entry): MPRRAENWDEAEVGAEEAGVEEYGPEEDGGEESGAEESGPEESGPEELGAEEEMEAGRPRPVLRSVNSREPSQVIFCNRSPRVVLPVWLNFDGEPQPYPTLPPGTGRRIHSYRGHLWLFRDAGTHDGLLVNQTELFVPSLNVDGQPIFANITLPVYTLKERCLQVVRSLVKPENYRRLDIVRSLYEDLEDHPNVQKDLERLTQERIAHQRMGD
Assay [2] has as its target T1, von Hippel-Lindau disease tumor suppressor/Androgen receptor. The experiment in a line: Protac activity at E3-ubiquitin ligase/AR in human VCaP cells assessed as AR degradation up to 15 mins by ELISA relative to control. Set-up: concentration or dose not given beside the values.
Target sequence in this assay (P10275 whole entry, looked up): as the sequence (P10275 whole entry) above
Target sequence in this assay (P40337 whole entry, looked up): as the sequence (P40337 whole entry) above
Assay [3] shares this target. The experiment in a line: Protac activity at E3 ubiquitin-protein ligase/AR in human VCAP cells assessed as induction of AR degradation after 24 hrs by ELISA relative to control.
Target sequence in this assay (P10275 whole entry, looked up): as the sequence (P10275 whole entry) above
Target sequence in this assay (P40337 whole entry, looked up): as the sequence (P40337 whole entry) above
Assay [4] shares this target. The experiment in a line: Protac activity at E3-ubiquitin ligase/AR in human VCaP cells assessed as time taken for maximal degradation by ELISA.
Target sequence in this assay (P10275 whole entry, looked up): as the sequence (P10275 whole entry) above
Target sequence in this assay (P40337 whole entry, looked up): as the sequence (P40337 whole entry) above
Assay [5] shares this target. Description: Protac activity at E3-ubiquitin ligase/AR in human LNCAP cells assessed as AR degradation up to 15 mins by ELISA relative to control. On the set-up: concentration or dose not given beside the values.
Target sequence in this assay (P10275 whole entry, looked up): as the sequence (P10275 whole entry) above
Target sequence in this assay (P40337 whole entry, looked up): as the sequence (P40337 whole entry) above
Assay [6] shares this target. Description: Protac activity at E3-ubiquitin ligase/AR in human LNCAP cells assessed as time taken for maximum degradation by ELISA.
Target sequence in this assay (P10275 whole entry, looked up): as the sequence (P10275 whole entry) above
Target sequence in this assay (P40337 whole entry, looked up): as the sequence (P40337 whole entry) above
For assay [7] the target is unchanged. The experiment in a line: Protac activity at E3 ubiquitin-protein ligase/AR in human LNCAP cells assessed as induction of AR degradation after 24 hrs by ELISA relative to control.
Target sequence in this assay (P10275 whole entry, looked up): as the sequence (P10275 whole entry) above
Target sequence in this assay (P40337 whole entry, looked up): as the sequence (P40337 whole entry) above
Assay [8] shares this target. The experiment in a line: Protac activity at E3 ubiquitin-protein ligase/AR in human LNCAP cells assessed as induction of AR degradation after 24 hrs by ELISA.
Target sequence in this assay (P10275 whole entry): as the sequence (P10275 whole entry) above
Target sequence in this assay (P40337 whole entry): as the sequence (P40337 whole entry) above

`Cc1ncsc1-c1ccc(CNC(=O)[C@@H]2C[C@@H](O)CN2C(=O)[C@@H](NC(=O)COCCCOCCCCCOc2ccc(N3C(=S)N(c4ccc(C#N)c(C(F)(F)F)c4)C(=O)C3(C)C)cc2)C(C)(C)C)cc1`: the DC50 in assay [1] and in assay [8] was not above 50 µM throughout. Further, the Activity in assay [2] and in assay [5] was 50% each time. For the same compound, the Emax was less than 70% in assay [3] and more than 71% in assay [7]. In addition, the TIME in assay [4] and in assay [6] was 4 h throughout.

As for `Cc1ncsc1-c1ccc([C@H](C)NC(=O)[C@@H]2C[C@@H](O)CN2C(=O)[C@@H](NC(=O)COCCCOCCCCCOc2c(F)cc(N3C(=S)N(c4ccc(C#N)c(C(F)(F)F)c4)C(=O)C3(C)C)cc2F)C(C)(C)C)cc1`, the DC50 in assay [1] and in assay [8] was not above 50 µM in each case. Besides, the Activity in assay [2] and in assay [5] was 50% in each case. Besides, the figures for the Emax in assay [3] and in assay [7] were less than 70% and more than 71%, respectively. Further, the TIME in assay [4] and in assay [6] was 4 h in each case.

Consider `Cc1ncsc1-c1ccc(CNC(=O)[C@@H]2C[C@@H](O)CN2C(=O)[C@@H](NC(=O)COCCCOCCCCOc2ccc(N3C(=S)N(c4cnc(C#N)c(C(F)(F)F)c4)C(=O)C3(C)C)cc2)C(C)(C)C)cc1`, for which the half-maximal degradation concentration (DC50) in assay [1] and in assay [8] was not above 50 µM throughout. Also, the Activity in assay [2] and in assay [5] was 50% each time. In addition, the Emax in assay [3] and in assay [7] was more than 71% in each case. Moreover, the TIME in assay [4] and in assay [6] was 4 h throughout.

Regarding `Cc1ncsc1-c1ccc(CNC(=O)[C@@H]2C[C@@H](O)CN2C(=O)[C@@H](NC(=O)COCCCOCCCCOc2ccc(N3C(=S)N(c4ccc(C#N)c(C(F)(F)F)c4)C(=O)C3(C)C)cc2F)C(C)(C)C)cc1`, the DC50 in assay [1] and in assay [8] was not above 50 µM each time. Also, the Activity in assay [2] and in assay [5] was 50% in each case. For the same compound, the Emax in assay [3] and in assay [7] was more than 71% throughout. Further, the TIME in assay [4] and in assay [6] was 4 h throughout.

Consider `Cc1ncsc1-c1ccc(CNC(=O)[C@@H]2C[C@@H](O)CN2C(=O)[C@@H](NC(=O)COCCCOCCCCCOc2ccc(N3C(=S)N(c4cnc(C#N)c(C(F)(F)F)c4)C(=O)C3(C)C)cc2)C(C)(C)C)cc1`, for which the DC50 in assay [1] and in assay [8] was not above 50 µM throughout. Besides, the Activity in assay [2] and in assay [5] was 50% throughout. For the same compound, the values for the Emax in assay [3] and in assay [7] were less than 70% and more than 71%, respectively. Further, the TIME in assay [4] and in assay [6] was 4 h in each case.

On to `Cc1ncsc1-c1ccc(CNC(=O)[C@@H]2C[C@@H](O)CN2C(=O)[C@@H](NC(=O)COCCCOCCCCOc2ccc(N3C(=S)N(c4ccc(C#N)c(Cl)c4)C(=O)C3(C)C)cc2)C(C)(C)C)cc1`, for which the DC50 in assay [1] and in assay [8] was not above 50 µM throughout. The Activity in assay [2] and in assay [5] was 50% each time. Besides, the Emax in assay [3] and in assay [7] was more than 71% in each case. For the same compound, the TIME in assay [4] and in assay [6] was 4 h in each case.

Regarding `Cc1ncsc1-c1ccc([C@H](C)NC(=O)[C@@H]2C[C@@H](O)CN2C(=O)[C@@H](NC(=O)COCCCOCCCCCOc2ccc(N3C(=S)N(c4ccc(C#N)c(C(F)(F)F)c4)C(=O)C3(C)C)cc2F)C(C)(C)C)cc1`, the DC50 in assay [1] and in assay [8] was not above 50 µM each time. Also, the Activity in assay [2] and in assay [5] was 50% each time. In addition, the Emax in assay [3] was less than 70%; in assay [7] it was more than 71%. The TIME in assay [4] and in assay [6] was 4 h each time.

As to `Cc1ncsc1-c1ccc(CNC(=O)[C@@H]2C[C@@H](O)CN2C(=O)[C@@H](NC(=O)COCCCCOc2ccc(-c3ccc(N4C(=S)N(c5ccc(C#N)c(C(F)(F)F)c5)C(=O)C4(C)C)cc3)cc2)C(C)(C)C)cc1`, the DC50 in assay [1] and in assay [8] was not above 50 µM throughout. Moreover, the Activity in assay [2] and in assay [5] was 50% in each case. Besides, the Emax in assay [3] and in assay [7] was more than 71% throughout. Moreover, the TIME in assay [4] and in assay [6] was 4 h each time.
